Data from ChEMBL document CHEMBL4831516, “Development of Membrane-Active Honokiol/Magnolol Amphiphiles as Potent Antibacterial Agents against Methicillin-Resistant Staphylococcus aureus (MRSA)” (J Med Chem, 2021).

System: not listed separately
Test: Hemolytic activity in sheep RBC assessed as hemolysis incubated for 1 hr
Type: ADME, cell-based, Ovis aries, Erythrocyte
Conditions: sheep red blood cells (erythrocytes)

Compound | HC50 at 1 h
C=CCc1ccc(OCCC[N+](C)(C)CC(=O)N(CCCC)CCCC)c(-c2ccc(OCCC[N+](C)(C)CC(=O)N(CCCC)CCCC)c(CC=C)c2)c1.[Br-].[Br-] | 1080 µg/mL
C=CCc1ccc(OCCC[N+](C)(C)CC(=O)NCCCCC)c(-c2ccc(OCCC[N+](C)(C)CC(=O)NCCCCC)c(CC=C)c2)c1.[Br-].[Br-] | 1090 µg/mL

System: Escherichia coli
Test: Antibacterial activity against Escherichia coli ATCC25922 assessed as inhibition of visible growth incubated for 16 to 18 hrs by CLSI method
Type: functional
Conditions: time 16-18 hrs, read-out: MIC100

Compound | MIC
C=CCc1ccc(OCCC[N+](C)(C)CC(=O)N(CCCC)CCCC)c(-c2ccc(OCCC[N+](C)(C)CC(=O)N(CCCC)CCCC)c(CC=C)c2)c1.[Br-].[Br-] | 4 µg/mL
C=CCc1ccc(OCCC[N+](C)(C)CC(=O)NCCCCC)c(-c2ccc(OCCC[N+](C)(C)CC(=O)NCCCCC)c(CC=C)c2)c1.[Br-].[Br-] | 16 µg/mL

System: Staphylococcus aureus
Test: Antibacterial activity against methicillin-resistant Staphylococcus aureus clinical isolate M-17 assessed as inhibition of visible growth incubated for 16 to 18 hrs by CLSI method
Type: functional
Conditions: time 16-18 hrs, read-out: MIC100

Compound | MIC
C=CCc1ccc(OCCC[N+](C)(C)CC(=O)N(CCCC)CCCC)c(-c2ccc(OCCC[N+](C)(C)CC(=O)N(CCCC)CCCC)c(CC=C)c2)c1.[Br-].[Br-] | 8 µg/mL
C=CCc1ccc(OCCC[N+](C)(C)CC(=O)NCCCCC)c(-c2ccc(OCCC[N+](C)(C)CC(=O)NCCCCC)c(CC=C)c2)c1.[Br-].[Br-] | 2 µg/mL

System: not listed separately
Test: Selectivity index, HC50 for hemolytic activity in sheep RBC to MIC for antibacterial activity against Staphylococcus aureus ATCC29213
Type: toxicity
Conditions: sheep red blood cells (erythrocytes), read-out: Selectivity Index

Compound | selectivity ratio
C=CCc1ccc(OCCC[N+](C)(C)CC(=O)N(CCCC)CCCC)c(-c2ccc(OCCC[N+](C)(C)CC(=O)N(CCCC)CCCC)c(CC=C)c2)c1.[Br-].[Br-] | 270
C=CCc1ccc(OCCC[N+](C)(C)CC(=O)NCCCCC)c(-c2ccc(OCCC[N+](C)(C)CC(=O)NCCCCC)c(CC=C)c2)c1.[Br-].[Br-] | 546

System: Staphylococcus aureus
Test: Antibacterial activity against methicillin-resistant Staphylococcus aureus clinical isolate M-18 assessed as inhibition of visible growth incubated for 16 to 18 hrs by CLSI method
Type: functional
Conditions: time 16-18 hrs, read-out: MIC100

Compound | MIC
C=CCc1ccc(OCCC[N+](C)(C)CC(=O)N(CCCC)CCCC)c(-c2ccc(OCCC[N+](C)(C)CC(=O)N(CCCC)CCCC)c(CC=C)c2)c1.[Br-].[Br-] | 8 µg/mL
C=CCc1ccc(OCCC[N+](C)(C)CC(=O)NCCCCC)c(-c2ccc(OCCC[N+](C)(C)CC(=O)NCCCCC)c(CC=C)c2)c1.[Br-].[Br-] | 2 µg/mL

System: Staphylococcus aureus
Test: Antibacterial activity against methicillin-resistant Staphylococcus aureus clinical isolate M-12 assessed as inhibition of visible growth incubated for 16 to 18 hrs by CLSI method
Type: functional
Conditions: time 16-18 hrs, read-out: MIC100

Compound | MIC
C=CCc1ccc(OCCC[N+](C)(C)CC(=O)N(CCCC)CCCC)c(-c2ccc(OCCC[N+](C)(C)CC(=O)N(CCCC)CCCC)c(CC=C)c2)c1.[Br-].[Br-] | 8 µg/mL
C=CCc1ccc(OCCC[N+](C)(C)CC(=O)NCCCCC)c(-c2ccc(OCCC[N+](C)(C)CC(=O)NCCCCC)c(CC=C)c2)c1.[Br-].[Br-] | 2 µg/mL

System: Staphylococcus aureus
Test: Antibacterial activity against methicillin-resistant Staphylococcus aureus clinical isolate M-13 assessed as inhibition of visible growth incubated for 16 to 18 hrs by CLSI method
Type: functional
Conditions: time 16-18 hrs, read-out: MIC100

Compound | MIC
C=CCc1ccc(OCCC[N+](C)(C)CC(=O)N(CCCC)CCCC)c(-c2ccc(OCCC[N+](C)(C)CC(=O)N(CCCC)CCCC)c(CC=C)c2)c1.[Br-].[Br-] | 8 µg/mL
C=CCc1ccc(OCCC[N+](C)(C)CC(=O)NCCCCC)c(-c2ccc(OCCC[N+](C)(C)CC(=O)NCCCCC)c(CC=C)c2)c1.[Br-].[Br-] | 4 µg/mL

System: Staphylococcus aureus
Test: Antibacterial activity against methicillin-resistant Staphylococcus aureus clinical isolate M-20 assessed as inhibition of visible growth incubated for 16 to 18 hrs by CLSI method
Type: functional
Conditions: time 16-18 hrs, read-out: MIC100

Compound | MIC
C=CCc1ccc(OCCC[N+](C)(C)CC(=O)N(CCCC)CCCC)c(-c2ccc(OCCC[N+](C)(C)CC(=O)N(CCCC)CCCC)c(CC=C)c2)c1.[Br-].[Br-] | 8 µg/mL
C=CCc1ccc(OCCC[N+](C)(C)CC(=O)NCCCCC)c(-c2ccc(OCCC[N+](C)(C)CC(=O)NCCCCC)c(CC=C)c2)c1.[Br-].[Br-] | 4 µg/mL

System: Staphylococcus aureus
Test: Antibacterial activity against methicillin-resistant Staphylococcus aureus clinical isolate M-15 assessed as inhibition of visible growth incubated for 16 to 18 hrs by CLSI method
Type: functional
Conditions: time 16-18 hrs, read-out: MIC100

Compound | MIC
C=CCc1ccc(OCCC[N+](C)(C)CC(=O)N(CCCC)CCCC)c(-c2ccc(OCCC[N+](C)(C)CC(=O)N(CCCC)CCCC)c(CC=C)c2)c1.[Br-].[Br-] | 8 µg/mL
C=CCc1ccc(OCCC[N+](C)(C)CC(=O)NCCCCC)c(-c2ccc(OCCC[N+](C)(C)CC(=O)NCCCCC)c(CC=C)c2)c1.[Br-].[Br-] | 2 µg/mL

System: Enterococcus faecalis
Test: Antibacterial activity against Enterococcus faecalis ATCC29212 assessed as inhibition of visible growth incubated for 16 to 18 hrs by CLSI method
Type: functional
Conditions: time 16-18 hrs, read-out: MIC100

Compound | MIC
C=CCc1ccc(OCCC[N+](C)(C)CC(=O)N(CCCC)CCCC)c(-c2ccc(OCCC[N+](C)(C)CC(=O)N(CCCC)CCCC)c(CC=C)c2)c1.[Br-].[Br-] | 2 µg/mL
C=CCc1ccc(OCCC[N+](C)(C)CC(=O)NCCCCC)c(-c2ccc(OCCC[N+](C)(C)CC(=O)NCCCCC)c(CC=C)c2)c1.[Br-].[Br-] | 4 µg/mL

System: Bacillus subtilis
Test: Antibacterial activity against Bacillus subtilis assessed as inhibition of visible growth incubated for 16 to 18 hrs by CLSI method
Type: functional
Conditions: time 16-18 hrs, read-out: MIC100

Compound | MIC
C=CCc1ccc(OCCC[N+](C)(C)CC(=O)N(CCCC)CCCC)c(-c2ccc(OCCC[N+](C)(C)CC(=O)N(CCCC)CCCC)c(CC=C)c2)c1.[Br-].[Br-] | 2 µg/mL
C=CCc1ccc(OCCC[N+](C)(C)CC(=O)NCCCCC)c(-c2ccc(OCCC[N+](C)(C)CC(=O)NCCCCC)c(CC=C)c2)c1.[Br-].[Br-] | 8 µg/mL

System: Salmonella enterica
Test: Antibacterial activity against Salmonella enterica 349812 assessed as inhibition of visible growth incubated for 16 to 18 hrs by CLSI method
Type: functional
Conditions: time 16-18 hrs, read-out: MIC100

Compound | MIC
C=CCc1ccc(OCCC[N+](C)(C)CC(=O)N(CCCC)CCCC)c(-c2ccc(OCCC[N+](C)(C)CC(=O)N(CCCC)CCCC)c(CC=C)c2)c1.[Br-].[Br-] | 16 µg/mL
C=CCc1ccc(OCCC[N+](C)(C)CC(=O)NCCCCC)c(-c2ccc(OCCC[N+](C)(C)CC(=O)NCCCCC)c(CC=C)c2)c1.[Br-].[Br-] | 8 µg/mL

System: Staphylococcus aureus
Test: Antibacterial activity against Staphylococcus aureus ATCC29213 assessed as inhibition of visible growth incubated for 16 to 18 hrs by CLSI method
Type: functional
Conditions: time 16-18 hrs, read-out: MIC100

Compound | MIC
C=CCc1ccc(OCCC[N+](C)(C)CC(=O)N(CCCC)CCCC)c(-c2ccc(OCCC[N+](C)(C)CC(=O)N(CCCC)CCCC)c(CC=C)c2)c1.[Br-].[Br-] | 4 µg/mL
C=CCc1ccc(OCCC[N+](C)(C)CC(=O)NCCCCC)c(-c2ccc(OCCC[N+](C)(C)CC(=O)NCCCCC)c(CC=C)c2)c1.[Br-].[Br-] | 2 µg/mL

System: Staphylococcus aureus
Test: Antibacterial activity against methicillin-resistant Staphylococcus aureus clinical isolate M-14 assessed as inhibition of visible growth incubated for 16 to 18 hrs by CLSI method
Type: functional
Conditions: time 16-18 hrs, read-out: MIC100

Compound | MIC
C=CCc1ccc(OCCC[N+](C)(C)CC(=O)N(CCCC)CCCC)c(-c2ccc(OCCC[N+](C)(C)CC(=O)N(CCCC)CCCC)c(CC=C)c2)c1.[Br-].[Br-] | 8 µg/mL
C=CCc1ccc(OCCC[N+](C)(C)CC(=O)NCCCCC)c(-c2ccc(OCCC[N+](C)(C)CC(=O)NCCCCC)c(CC=C)c2)c1.[Br-].[Br-] | 4 µg/mL

System: Stenotrophomonas maltophilia
Test: Antibacterial activity against Stenotrophomonas maltophilia assessed as inhibition of visible growth incubated for 16 to 18 hrs by CLSI method
Type: functional
Conditions: time 16-18 hrs, read-out: MIC100

Compound | MIC
C=CCc1ccc(OCCC[N+](C)(C)CC(=O)N(CCCC)CCCC)c(-c2ccc(OCCC[N+](C)(C)CC(=O)N(CCCC)CCCC)c(CC=C)c2)c1.[Br-].[Br-] | 4 µg/mL
C=CCc1ccc(OCCC[N+](C)(C)CC(=O)NCCCCC)c(-c2ccc(OCCC[N+](C)(C)CC(=O)NCCCCC)c(CC=C)c2)c1.[Br-].[Br-] | 16 µg/mL

System: Staphylococcus aureus
Test: Antibacterial activity against methicillin-resistant Staphylococcus aureus clinical isolate M-16 assessed as inhibition of visible growth incubated for 16 to 18 hrs by CLSI method
Type: functional
Conditions: time 16-18 hrs, read-out: MIC100

Compound | MIC
C=CCc1ccc(OCCC[N+](C)(C)CC(=O)N(CCCC)CCCC)c(-c2ccc(OCCC[N+](C)(C)CC(=O)N(CCCC)CCCC)c(CC=C)c2)c1.[Br-].[Br-] | 8 µg/mL
C=CCc1ccc(OCCC[N+](C)(C)CC(=O)NCCCCC)c(-c2ccc(OCCC[N+](C)(C)CC(=O)NCCCCC)c(CC=C)c2)c1.[Br-].[Br-] | 2 µg/mL

System: Micrococcus luteus
Test: Antibacterial activity against Micrococcus luteus assessed as inhibition of visible growth incubated for 16 to 18 hrs by CLSI method
Type: functional
Conditions: time 16-18 hrs, read-out: MIC100

Compound | MIC
C=CCc1ccc(OCCC[N+](C)(C)CC(=O)N(CCCC)CCCC)c(-c2ccc(OCCC[N+](C)(C)CC(=O)N(CCCC)CCCC)c(CC=C)c2)c1.[Br-].[Br-] | 1 µg/mL
C=CCc1ccc(OCCC[N+](C)(C)CC(=O)NCCCCC)c(-c2ccc(OCCC[N+](C)(C)CC(=O)NCCCCC)c(CC=C)c2)c1.[Br-].[Br-] | 4 µg/mL

System: Staphylococcus aureus
Test: Antibacterial activity against methicillin-resistant Staphylococcus aureus clinical isolate M-19 assessed as inhibition of visible growth incubated for 16 to 18 hrs by CLSI method
Type: functional
Conditions: time 16-18 hrs, read-out: MIC100

Compound | MIC
C=CCc1ccc(OCCC[N+](C)(C)CC(=O)N(CCCC)CCCC)c(-c2ccc(OCCC[N+](C)(C)CC(=O)N(CCCC)CCCC)c(CC=C)c2)c1.[Br-].[Br-] | 8 µg/mL
C=CCc1ccc(OCCC[N+](C)(C)CC(=O)NCCCCC)c(-c2ccc(OCCC[N+](C)(C)CC(=O)NCCCCC)c(CC=C)c2)c1.[Br-].[Br-] | 2 µg/mL

System: Salmonella enterica
Test: Antibacterial activity against Salmonella enterica 8389 assessed as inhibition of visible growth incubated for 16 to 18 hrs by CLSI method
Type: functional
Conditions: time 16-18 hrs, read-out: MIC100

Compound | MIC
C=CCc1ccc(OCCC[N+](C)(C)CC(=O)N(CCCC)CCCC)c(-c2ccc(OCCC[N+](C)(C)CC(=O)N(CCCC)CCCC)c(CC=C)c2)c1.[Br-].[Br-] | 8 µg/mL
C=CCc1ccc(OCCC[N+](C)(C)CC(=O)NCCCCC)c(-c2ccc(OCCC[N+](C)(C)CC(=O)NCCCCC)c(CC=C)c2)c1.[Br-].[Br-] | 8 µg/mL

System: Staphylococcus aureus
Test: Antibacterial activity against methicillin-resistant Staphylococcus aureus clinical isolate M-11 assessed as inhibition of visible growth incubated for 16 to 18 hrs by CLSI method
Type: functional
Conditions: time 16-18 hrs, read-out: MIC100

Compound | MIC
C=CCc1ccc(OCCC[N+](C)(C)CC(=O)N(CCCC)CCCC)c(-c2ccc(OCCC[N+](C)(C)CC(=O)N(CCCC)CCCC)c(CC=C)c2)c1.[Br-].[Br-] | 8 µg/mL
C=CCc1ccc(OCCC[N+](C)(C)CC(=O)NCCCCC)c(-c2ccc(OCCC[N+](C)(C)CC(=O)NCCCCC)c(CC=C)c2)c1.[Br-].[Br-] | 4 µg/mL
